Like-named read-outs stand apart in the source and are kept apart here.
Key:
[1] = target: T1, human recombinant HDAC6 (Homo sapiens, UniProt Q9UBN7); test: HDAC6 enzyme activity inhibition (HDAC Fluorimetric Drug Discovery Kit); assay type: biochemical
T1 construct: purchased Calbiochem Inc. 382180
T1 sequence (Q9UBN7 1-1215): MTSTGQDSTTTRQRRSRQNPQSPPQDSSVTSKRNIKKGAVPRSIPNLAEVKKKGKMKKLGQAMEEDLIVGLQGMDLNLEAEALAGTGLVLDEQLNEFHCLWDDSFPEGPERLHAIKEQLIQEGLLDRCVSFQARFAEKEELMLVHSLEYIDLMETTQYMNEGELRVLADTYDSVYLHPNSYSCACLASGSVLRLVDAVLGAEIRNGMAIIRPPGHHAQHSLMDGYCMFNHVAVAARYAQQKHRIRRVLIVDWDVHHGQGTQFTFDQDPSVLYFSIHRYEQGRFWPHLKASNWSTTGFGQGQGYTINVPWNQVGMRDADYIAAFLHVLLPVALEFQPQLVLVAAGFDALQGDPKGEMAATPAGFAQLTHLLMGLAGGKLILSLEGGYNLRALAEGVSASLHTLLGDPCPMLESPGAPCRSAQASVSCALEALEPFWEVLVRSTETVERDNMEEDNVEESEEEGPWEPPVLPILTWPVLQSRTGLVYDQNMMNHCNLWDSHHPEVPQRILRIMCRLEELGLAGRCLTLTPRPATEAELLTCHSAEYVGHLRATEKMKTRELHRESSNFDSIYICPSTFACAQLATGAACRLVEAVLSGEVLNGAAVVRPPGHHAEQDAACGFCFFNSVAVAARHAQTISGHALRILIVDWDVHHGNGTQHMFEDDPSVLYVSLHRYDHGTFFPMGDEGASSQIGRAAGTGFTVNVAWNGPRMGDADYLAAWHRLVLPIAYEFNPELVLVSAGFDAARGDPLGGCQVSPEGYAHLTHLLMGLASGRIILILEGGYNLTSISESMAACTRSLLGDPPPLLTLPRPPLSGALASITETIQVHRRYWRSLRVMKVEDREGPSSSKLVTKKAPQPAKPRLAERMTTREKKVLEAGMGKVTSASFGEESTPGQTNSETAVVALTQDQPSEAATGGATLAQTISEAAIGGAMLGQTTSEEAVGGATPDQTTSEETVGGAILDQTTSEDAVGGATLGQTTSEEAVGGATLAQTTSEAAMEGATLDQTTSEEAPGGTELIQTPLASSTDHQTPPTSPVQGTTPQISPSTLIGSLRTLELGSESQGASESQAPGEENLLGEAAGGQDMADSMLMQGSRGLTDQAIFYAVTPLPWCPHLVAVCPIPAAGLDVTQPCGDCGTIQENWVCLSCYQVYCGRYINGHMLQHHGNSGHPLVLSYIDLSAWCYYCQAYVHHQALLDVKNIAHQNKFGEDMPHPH
Outline: (§1)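 Compounds in 5-fold dilution series were incubated with […] enzyme and 10 μM substrate at 30° C for 60 minutes. Fluor de Lys Developer II was then added for 30 minutes to stop the reaction and develop the fluorescent signal.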

[2] = target: T2, human recombinant HDAC1 (Homo sapiens, UniProt Q13547); test: HDAC1 enzyme activity inhibition (HDAC Fluorimetric Drug Discovery Kit); assay type: biochemical; conditions: read-out: HDAC1
T2 construct: purchased Enzo Life Science, Inc. BML-SE456
Outline: as §1

[3] = test system: hippocampal neurons from a Sprague-Dawley (SD) rat fetus; test: Effect of HDAC6-specific inhibitor on axonal transport of mitochondria in amyloid-beta treated neurons; assay type: cell-based; conditions: transport velocity of mitochondria in neuronal axon after normalization; vehicle = 100%, amyloid beta treatment group = 0%; compound treatment for three hours
Outline: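 Rat E17-18 hippocampal neurons exposed to amyloid-beta fragments […]; after 24 h (day 8 in vitro) compound added for 3 h, mitochondria stained with MitoTracker Red CMXRos. Confocal imaging every 1 s for 1 min gave per-mitochondrion velocity, normalized vehicle = 100%, amyloid-beta = 0%.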

[4] = human recombinant HDAC6, IC50 calculated with GraphPad Prism
[5] = human recombinant HDAC1, IC50 calculated with GraphPad Prism
[6] = human recombinant HDAC6, same protocol as HDAC1
[7] = human recombinant HDAC1, Fluor de Lys substrate, 30° C. 60 minutes

T2 sequence (Q13547 whole entry): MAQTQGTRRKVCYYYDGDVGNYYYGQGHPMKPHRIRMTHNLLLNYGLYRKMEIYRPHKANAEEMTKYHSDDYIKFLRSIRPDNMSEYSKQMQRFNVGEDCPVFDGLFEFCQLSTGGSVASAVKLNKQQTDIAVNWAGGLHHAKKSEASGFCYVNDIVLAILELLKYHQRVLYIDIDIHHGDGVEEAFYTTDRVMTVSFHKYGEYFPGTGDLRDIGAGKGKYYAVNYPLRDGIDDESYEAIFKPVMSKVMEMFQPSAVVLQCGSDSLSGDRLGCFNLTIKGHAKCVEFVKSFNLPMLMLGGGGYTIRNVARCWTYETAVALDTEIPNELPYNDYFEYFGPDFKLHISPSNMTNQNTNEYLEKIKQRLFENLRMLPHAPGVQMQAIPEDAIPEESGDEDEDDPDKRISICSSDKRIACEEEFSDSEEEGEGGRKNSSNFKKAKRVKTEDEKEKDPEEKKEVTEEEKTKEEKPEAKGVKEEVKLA

| HDAC6 selectivity (fold) ([1]; HDAC1 IC50 / HDAC6 IC50) | IC50 [1, 4] | IC50 [2, 5] | HDAC6 selectivity (fold) ([1]; HDAC6 over HDAC1) | IC50 [1, 6] | IC50 [2, 7] | Compound | Velocity distribution (%) [3] |
| --- | --- | --- | --- | --- | --- | --- | --- |
| 1479 fold | 33.8 nM | > 50000 nM |  |  |  | FC(F)c1nnc(-c2ccc(Cn3cc(-c4ccc5cc[nH]c5c4)cn3)nc2)o1 [Compound 4208] | ** (**, 50%˜100%) |
| 5681 fold | 8.8 nM | > 50000 nM |  |  |  | FC(F)c1nnc(-c2ccc(Cn3cc(-c4ccnc5[nH]ccc45)nn3)nc2)o1 [Compound 3840, 2-(6-((4-(1H-pyrrolo[2,3-b]pyridin-4-yl)-1H-1,2,3-triazol-1-yl)methyl)pyridin-3-yl)-5-(difluoromethyl)-1,3,4-oxadiazole] | ** (**, 50%˜100%) |
| 3030 fold | 16.5 nM | > 50000 nM |  |  |  | FC(F)c1nnc(-c2ccc(Cn3cc(-c4ccc5c(CN6CCOCC6)c[nH]c5c4)nn3)cc2)o1 [Compound 4134, 4-((6-(1-(4-(5-(difluoromethyl)-1,3,4-oxadiazol-2-yl)benzyl)-1H-1,2,3-triazol-4-yl)-1H-indol-3-yl)methyl)morpholine] | ** (**, 50%˜100%) |
| 6756 fold | 7.4 nM | > 50000 nM |  |  |  | FC(F)c1nnc(-c2ccc(Cn3cc(-c4cccc5[nH]ccc45)nn3)nc2)o1 [Compound 3839, 2-(6-((4-(1H-indol-4-yl)-1H-1,2,3-triazol-1-yl)methyl)pyridin-3-yl)-5-(difluoromethyl)-1,3,4-oxadiazole] | * (*, 0%˜50%) |
|  |  |  | 705 fold | 70.9 nM | > 50000 nM | CN(C)Cc1ccc(-c2cn(Cc3ccc(-c4nnc(C(F)F)o4)cc3F)nn2)cn1 [Compound 18176, 1-(5-(1-(4-(5-(difluoromethyl)-1,3,4-oxadiazol-2-yl)-2-fluorobenzyl)-1H-1,2,3-triazol-4-yl)pyridin-2-yl)-N,N-dimethylmethanamine] | ** (**, 50%˜100%) |
| 2631 fold | 19 nM | > 50000 nM |  |  |  | CC(=O)N1CCN(c2cccc(-c3cn(Cc4ccc(-c5nnc(C(F)F)o5)cn4)nn3)c2)CC1 [Compound 3990, 1-(4-(3-(1-((5-(5-(difluoromethyl)-1,3,4-oxadiazol-2-yl)pyridin-2-yl)methyl)-1H-1,2,3-triazol-4-yl)phenyl)piperazin-1-yl)ethan-1-one] | ** (**, 50%˜100%) |
| 2183 fold | 22.9 nM | > 50000 nM |  |  |  | FC(F)c1nnc(-c2ccc(Cn3cc(-c4cccc(C5CCN(C6COC6)CC5)c4)nn3)nc2)o1 [Compound 4013, 2-(difluoromethyl)-5-(6-((4-(3-(1-(oxetan-3-yl)piperidin-4-yl)phenyl)-1H-1,2,3-triazol-1-yl)methyl)pyridin-3-yl)-1,3,4-oxadiazole] | ** (**, 50%˜100%) |
| 2688 fold | 18.6 nM | > 50000 nM |  |  |  | FC(F)c1nnc(-c2ccc(Cn3cc(-c4cccc(N5CCOCC5)c4)nn3)nc2)o1 [Compound 3866, 4-(3-(1-((5-(5-(difluoromethyl)-1,3,4-oxadiazol-2-yl)pyridin-2-yl)methyl)-1H-1,2,3-triazol-4-yl)phenyl)morpholin] | ** (**, 50%˜100%) |
| 1474 fold | 33.9 nM | > 50000 nM |  |  |  | FC(F)c1nnc(-c2ccc(Cn3cc(-c4cncc(Cl)c4)nn3)nc2)o1 [Compound 3883, 2-(6-((4-(5-chloropyridin-3-yl)-1H-1,2,3-triazol-1-yl)methyl)pyridin-3-yl)-5-(difluoromethyl)-1,3,4-oxadiazole] | * (*, 0%˜50%) |
|  |  |  | 639 fold | 78.2 nM | > 50000 nM | Fc1cc(-c2nnc(C(F)F)o2)ccc1Cn1cc(-c2cn3ccccc3n2)nn1 [Compound 17201, 2-(difluoromethyl)-5-(3-fluoro-4-((4-(imidazo[1,2-a]pyridin-2-yl)-1H-1,2,3-triazol-1-yl)methyl)phenyl)-1,3,4-oxadiazole] | * (*, 0%˜50%) |
| 9090 fold | 5.5 nM | > 50000 nM |  |  |  | FC(F)c1nnc(-c2ccc(Cn3cc(-c4cccc5[nH]ncc45)nn3)nc2)o1 [Compound 4346, 2-(6-((4-(1H-indazol-4-yl)-1H-1,2,3-triazol-1-yl)methyl)pyridin-3-yl)-5-(difluoromethyl)-1,3,4-oxadiazole] | *** (***, >100%) |
| 4464 fold | 11.2 nM | > 50000 nM |  |  |  | CC(C)(C)C(=O)Nc1cccc(-c2cn(Cc3ccc(-c4nnc(C(F)F)o4)cn3)nn2)c1 [Compound 3825, N-(3-(1-((5-(5-(difluoromethyl)-1,3,4-oxadiazol-2-yl)pyridin-2-yl)methyl)-1H-1,2,3-triazol-4-yl)phenyl)pivalamide] | *** (***, >100%) |
| 1543 fold | 32.4 nM | > 50000 nM |  |  |  | CN1CCN(c2cccc(-c3cn(Cc4ccc(-c5nnc(C(F)F)o5)cc4)nn3)c2)CC1 [Compound 4336, 2-(difluoromethyl)-5-(4-((4-(3-(4-methylpiperazin-1-yl)phenyl)-1H-1,2,3-triazol-1-yl)methyl)phenyl)-1,3,4-oxadiazole] | *** (***, >100%) |
| 2873 fold | 17.4 nM | > 50000 nM |  |  |  | CCn1ccc2ccc(-c3cn(Cc4ccc(-c5nnc(C(F)F)o5)cn4)nn3)cc21 [Compound 4136, 2-(difluoromethyl)-5-(6-((4-(1-ethyl-1H-indol-6-yl)-1H-1,2,3-triazol-1-yl)methyl)pyridin-3-yl)-1,3,4-oxadiazole] | ** (**, 50%˜100%) |

Source: patent US20230257372A1 (CHONG KUN DANG PHARMACEUTICAL CORP., priority 2020, published 2023)
